The values below come from ChEMBL document CHEMBL1131906, “Synthesis and structure-activity relationships of new second-generation taxoids” (Bioorg Med Chem Lett, 1999).

The nature of assay [1]: Inhibitory activity against the growth of LCC6-WT (human breast carcinoma) cell line after 72 hours of drug exposure. It is filed as functional.
Assay [2] relates to MCF7. Kind of assay: Inhibitory activity against the growth of MCF-7 (human breast carcinoma) cell line after 72 hours of drug exposure. It is filed as functional, cell-based. Conditions: MCF7, 72 h.
Assay [3] relates to MCF7. The experiment in a line: Inhibitory activity against the growth of MCF-7R ( multi drug resistant human breast carcinoma) cell line after 72 hours of drug exposure. Type of assay: functional, cell-based. Conditions: MCF7, 72 h.
A short description of assay [4]: Inhibitory activity against the growth of LCC6-MDR (Multi Drug Resistant 1 transduced line) cell line after 72 hours of drug exposure. Particulars: Homo sapiens, LCC6MDR. It is filed as functional.
Assay [5] has as its system MCF7. The experiment in a line: Ratio of activities, drug resistant (R) to drug sensitive (S) carcinoma cell lines. Type of assay: functional, Homo sapiens.

Broadly, the IC50 is the concentration that gives 50% inhibition. Take `CCC(=O)O[C@H]1C(=O)[C@@]2(C)C([C@H](OC(=O)c3cccc(OC)c3)[C@]3(O)C[C@H](OC(=O)[C@H](O)[C@@H](NC(=O)OC(C)(C)C)[C@H]4CC4(C)C)C(C)=C1C3(C)C)[C@]1(OC(C)=O)CO[C@@H]1C[C@@H]2O` (some centres undefined): the 50% inhibitory concentration (IC50) stood at 0.48 nM in assay [1], 0.6 nM with MCF7 [2] and 1.5 nM in the assay with MCF7 [3].
The compound `CCC(=O)O[C@H]1C(=O)[C@@]2(C)C([C@H](OC(=O)c3cccc(F)c3)[C@]3(O)C[C@H](OC(=O)[C@H](O)[C@H](C=C(C)C)NC(=O)OC(C)(C)C)C(C)=C1C3(C)C)[C@]1(OC(C)=O)CO[C@@H]1C[C@@H]2O` (some centres undefined) had an IC50 in assay [1] of 0.5 nM.
Take `COc1cccc(C(=O)O[C@H]2C3[C@](C)(C(=O)[C@H](OC(C)=O)C4=C(C)[C@@H](OC(=O)[C@H](O)[C@H](C=C(C)C)NC(=O)OC(C)(C)C)C[C@]2(O)C4(C)C)[C@@H](O)C[C@H]2OC[C@@]32OC(C)=O)c1` (some centres undefined): the values for the IC50 (in assay [1]; in the assay on MCF7 [2]; in the assay on MCF7 [3]) were 0.6 nM, 0.8 nM and 2.3 nM, respectively.
The matching figures for `CCC(=O)O[C@H]1C(=O)[C@@]2(C)C([C@H](OC(=O)c3cccc(OC)c3)[C@]3(O)C[C@H](OC(=O)[C@H](O)[C@@H](NC(=O)OC(C)(C)C)C(F)F)C(C)=C1C3(C)C)[C@]1(OC(C)=O)CO[C@@H]1C[C@@H]2O` (some centres undefined): 1.5 nM, 0.4 nM and 4.3 nM.
As to `COc1cccc(C(=O)O[C@H]2C3[C@](C)(C(=O)[C@H](OC(=O)C4CC4)C4=C(C)[C@@H](OC(=O)[C@H](O)[C@H](C=C(C)C)NC(=O)OC(C)(C)C)C[C@]2(O)C4(C)C)[C@@H](O)C[C@H]2OC[C@@]32OC(C)=O)c1` (some centres undefined), the IC50 in assay [1] came to 1 nM; in assay [4], 2.9 nM. The Ratio with MCF7 [5] is listed as 2.9.
In the case of `C=CCC[C@H](NC(=O)OC(C)(C)C)[C@@H](O)C(=O)O[C@H]1C[C@@]2(O)[C@@H](OC(=O)c3cccc(OC)c3)C3[C@](C)(C(=O)[C@H](OC(=O)CC)C(=C1C)C2(C)C)[C@@H](O)C[C@H]1OC[C@@]31OC(C)=O` (some centres undefined), the figures for the IC50 (in assay [1]; in the assay on MCF7 [2]; in the assay on MCF7 [3]) were 0.9 nM, 2 nM and 7.7 nM, respectively.
Turning to `CCC(=O)O[C@H]1C(=O)[C@@]2(C)C([C@H](OC(=O)c3cccc(F)c3)[C@]3(O)C[C@H](OC(=O)[C@H](O)[C@H](CC(C)C)NC(=O)OC(C)(C)C)C(C)=C1C3(C)C)[C@]1(OC(C)=O)CO[C@@H]1C[C@@H]2O` (some centres undefined), in assay [1], the 50% inhibitory concentration (IC50) amounted to 0.4 nM.
The same measure, in the same setting: as for `C/C=C\[C@H](NC(=O)OC(C)(C)C)[C@@H](O)C(=O)O[C@H]1C[C@@]2(O)[C@@H](OC(=O)c3cccc(OC)c3)C3[C@](C)(C(=O)[C@H](OC(=O)CC)C(=C1C)C2(C)C)[C@@H](O)C[C@H]1OC[C@@]31OC(C)=O` (some centres undefined), the figure is 1.2 nM.
The same measure, in the same setting: with `CCC(=O)O[C@H]1C(=O)[C@@]2(C)C([C@H](OC(=O)c3cccc(Cl)c3)[C@]3(O)C[C@H](OC(=O)[C@H](O)[C@H](C=C(C)C)NC(=O)OC(C)(C)C)C(C)=C1C3(C)C)[C@]1(OC(C)=O)CO[C@@H]1C[C@@H]2O` (some centres undefined) the figure was 0.8 nM.
As for `CCC(=O)O[C@H]1C(=O)[C@@]2(C)C([C@H](OC(=O)c3cccc(N=[N+]=[N-])c3)[C@]3(O)C[C@H](OC(=O)[C@H](O)[C@H](CC(C)C)NC(=O)OC(C)(C)C)C(C)=C1C3(C)C)[C@]1(OC(C)=O)CO[C@@H]1C[C@@H]2O` (some centres undefined), the values for the half-inhibitory concentration (IC50) (in assay [1]; in the assay on MCF7 [2]; in the assay with MCF7 [3]) were 1.1 nM, 1 nM and 2.1 nM, respectively.
The matching figures for `CCC(=O)O[C@H]1C(=O)[C@@]2(C)C([C@H](OC(=O)c3cccc(OC)c3)[C@]3(O)C[C@H](OC(=O)[C@H](O)[C@H](C=C(C)C)NC(=O)OC(C)(C)C)C(C)=C1C3(C)C)[C@]1(OC(C)=O)CO[C@@H]1C[C@@H]2O` (some centres undefined): 1 nM, 0.36 nM and 0.33 nM.
The matching figures for `C=CC[C@H](NC(=O)OC(C)(C)C)[C@@H](O)C(=O)O[C@H]1C[C@@]2(O)[C@@H](OC(=O)c3cccc(OC)c3)C3[C@](C)(C(=O)[C@H](OC(=O)CC)C(=C1C)C2(C)C)[C@@H](O)C[C@H]1OC[C@@]31OC(C)=O` (some centres undefined): 1.2 nM, 0.8 nM and 8.7 nM.
On the same counts, the results for `CC(=O)O[C@H]1C(=O)[C@@]2(C)C([C@H](OC(=O)c3cccc(C)c3)[C@]3(O)C[C@H](OC(=O)[C@H](O)[C@H](C=C(C)C)NC(=O)OC(C)(C)C)C(C)=C1C3(C)C)[C@]1(OC(C)=O)CO[C@@H]1C[C@@H]2O` (some centres undefined) are 1.5 nM, 0.8 nM and 5 nM.
Regarding `C=Cc1cccc(C(=O)O[C@H]2C3[C@](C)(C(=O)[C@H](OC(=O)CC)C4=C(C)[C@@H](OC(=O)[C@H](O)[C@H](C=C(C)C)NC(=O)OC(C)(C)C)C[C@]2(O)C4(C)C)[C@@H](O)C[C@H]2OC[C@@]32OC(C)=O)c1` (some centres undefined), the IC50 in assay [1] turned out to be 2.9 nM.
Take `CCC(=O)O[C@H]1C(=O)[C@@]2(C)C([C@H](OC(=O)c3cccc(N=[N+]=[N-])c3)[C@]3(O)C[C@H](OC(=O)[C@H](O)[C@H](C=C(C)C)NC(=O)OC(C)(C)C)C(C)=C1C3(C)C)[C@]1(OC(C)=O)CO[C@@H]1C[C@@H]2O` (some centres undefined): the values for the IC50 (in assay [1]; in the assay with MCF7 [2]; in the assay with MCF7 [3]) were 0.9 nM, 0.9 nM and 1.1 nM, respectively.
As to `CC(=O)O[C@@]12CO[C@@H]1C[C@H](O)[C@@]1(C)C(=O)[C@H](O)C3=C(C)[C@@H](OC(=O)[C@H](O)[C@@H](NC(=O)OC(C)(C)C)c4ccccc4)C[C@@](O)([C@@H](OC(=O)c4ccccc4)[C@H]21)C3(C)C.O.O.O` [DOCETAXEL], the IC50 in assay [1] stood at 1 nM; in assay [4] it was 120 nM.
On the same counts, the results for `CC(=O)O[C@H]1C(=O)[C@@]2(C)[C@H]([C@H](OC(=O)c3ccccc3)[C@]3(O)C[C@H](OC(=O)[C@H](O)[C@@H](NC(=O)c4ccccc4)c4ccccc4)C(C)=C1C3(C)C)[C@]1(OC(C)=O)CO[C@@H]1C[C@@H]2O` [PACLITAXEL] are 3.1 nM and 346 nM.
